Laboratory results: patent publication EP4653448A1, “COMPOUND FOR RNA CAPPING AND USE THEREOF” (Guangzhou Henovcom Bioscience Co. Ltd., priority 2023, dated 2024)

How the values were obtained:
T7 RNA Polymerase = T7 RNA Polymerase (Escherichia phage T7, UniProt P00573); assay: Detection of the efficiency of mRNA capping synthesis (in vitro transcription, product yield); format: biochemical; conditions: 20 µL mRNA synthesis reaction system
Experimental: • 1) The plasmids were linearized and the DNA templates were purified. • 2) The mRNA was synthesized by in vitro transcription, using the capping structure prepared in the present disclosure, positive control CleanCap®AG (3'OMe) (Trilink, N-7413), negative control (uncapped mRNA) and blank control (DNase/RNase-Free water), respectively. Reaction system
The reaction was carried out at 37°C for 2 to 3 h. TURBO DNase digestion was carried out for 15 min. The mRNA was precipitated by LiCl for 30 min or more or overnight, and the mRNA precipitate was washed with 75% ethanol, dried briefly to evaporate the ethanol, and the mRNA was redissolved with RNase-Free water.
In the reaction system listed in Table 1, since the solubility of different test compounds varies in different solutions, adjustments can be made as needed. For ease of operation, the commonly used concentrations are 10 mM and 100 mM. […] If the initial concentration of the test compound is 10 mM, the dosage is 8 µL. Regardless of the initial concentration, the dosages of different test compounds were the same, and the final concentrations were also the same.
For example, when testing compounds S17 and S19, their initial concentration was 10 mM, and the addition volume was 8 µL. When testing compounds 5 and 6, their initial concentration was 100 mM, and the addition volume was 0.8 µL.
The assay was performed according to the method described in Example 20.

HEK293T cells = assay: Expression efficiency of capped luciferase mRNAs in HEK293T cells; format: cell-based; conditions: 6 h after transfection of capped luciferase mRNA
Experimental: • 1) HNE293T cells were cultured in DMEM medium containing 10% FBS and penicillin/streptomycin at 37°C and 5% CO2. • 2) The cultured HEK293T cells were spread in a 96-well plate with 1.25 × 10^4 cells per well. • 3) After the cells completely adhered to the wall, 0.5 µg of a mixture of mRNA sample and Polyplus jet[…] was added to each well of cells, and cultured at 37°C and 5% CO2 for 6 h. • 4) The growth medium was removed from the cells to be tested and the cells were rinsed with PBS. After centrifugation to remove PBS, 50 µL of 1x lysis buffer was added thereto, and cells and all liquid were transferred to a microcentrifuge tube, and then centrifuged at 12000 x g at 4°C for 2 min. • 5) The supernatant was transferred to a new tube. Fluorescence readings were detected using the ONE-Glo Luciferase Assay System Kit.
All test compounds, N-7413, negative control and blank control were tested under the same conditions, and some experimental results in the test results are shown in Table 3. Table 3. Relative fluorescence readings for capped mRNAs
The assay was performed according to the method described in Example 21. All test compounds, N-7413, negative control and blank control were tested under the same conditions, and some experimental results in the test results are shown in Table 5. Table 5 Relative fluorescence readings for capped mRNAs

[1] = reading of N-7413 = 1 (Table 5)
[2] = test compound 4 mM, 37°C 2 to 3 h (Table 2)
[3] = 0.5 µg per well, reading of N-7413 = 1 (Table 3)

Chain of T7 RNA Polymerase (P00573 whole entry): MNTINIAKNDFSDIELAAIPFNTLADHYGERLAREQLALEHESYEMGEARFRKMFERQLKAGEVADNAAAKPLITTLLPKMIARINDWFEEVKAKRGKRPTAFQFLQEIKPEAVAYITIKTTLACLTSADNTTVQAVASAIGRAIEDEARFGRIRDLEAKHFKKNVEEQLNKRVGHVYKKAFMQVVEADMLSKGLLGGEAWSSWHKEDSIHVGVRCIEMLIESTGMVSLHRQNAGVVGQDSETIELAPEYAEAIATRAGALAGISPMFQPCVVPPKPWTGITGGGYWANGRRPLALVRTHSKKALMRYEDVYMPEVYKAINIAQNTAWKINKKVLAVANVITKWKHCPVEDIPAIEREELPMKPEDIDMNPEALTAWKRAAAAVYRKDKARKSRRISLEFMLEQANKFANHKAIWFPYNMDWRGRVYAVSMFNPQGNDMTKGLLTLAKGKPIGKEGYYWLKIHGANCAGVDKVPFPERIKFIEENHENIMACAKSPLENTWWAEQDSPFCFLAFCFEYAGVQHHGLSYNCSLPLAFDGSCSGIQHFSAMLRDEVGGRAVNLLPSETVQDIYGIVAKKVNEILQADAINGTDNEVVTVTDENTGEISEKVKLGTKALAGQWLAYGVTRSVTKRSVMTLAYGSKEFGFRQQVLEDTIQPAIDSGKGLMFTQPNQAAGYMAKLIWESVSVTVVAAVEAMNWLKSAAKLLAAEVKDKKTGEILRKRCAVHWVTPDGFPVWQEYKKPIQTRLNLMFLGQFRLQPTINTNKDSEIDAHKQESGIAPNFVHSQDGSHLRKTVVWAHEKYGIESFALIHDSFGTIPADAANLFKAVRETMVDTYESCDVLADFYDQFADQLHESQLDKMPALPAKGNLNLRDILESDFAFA

| Compound | Final product mass (T7 RNA Polymerase; method of Example 20 (Table 4)) | Relative fluorescence reading (HEK293T cells; [1]) | Final product mass (T7 RNA Polymerase; [2]) | Relative fluorescence reading (HEK293T cells; [3]) |
| --- | --- | --- | --- | --- |
| COCC1(F)C(COP(=O)(O)OP(=O)(O)OP(=O)(O)OCC2OC(n3cnc4c(N)ncnc43)C(OC)C2OP(=O)([O-])OCC2OC(n3cnc4c(=O)[nH]c(N)nc43)C(O)C2O)OC(n2c[n+](Cc3ccccc3)c3c(=O)[nH]c(N)nc32)C1O (stereo not shown) [Compound D88] | 114 µg | 2.04 |  |  |
| COC1C(OP(=O)([O-])OCC2OC(n3cnc4c(=O)[nH]c(N)nc43)C(O)C2O)C(COP(=O)(O)OP(=O)(O)OP(=O)(O)OCC2OC(n3c[n+](C)c4c(=O)[nH]c(N)nc43)C(O)C2(C)F)OC1n1cnc2c(N)ncnc21 (stereo not shown) [Compound D85] | 120 µg | 1.6 |  |  |
| COCC1(F)C(COP(=O)(O)OP(=O)(O)OP(=O)(O)OP(=O)(O)OCC2OC(n3cnc4c(N)ncnc43)C(OC)C2OP(=O)([O-])OCC2OC(n3cnc4c(=O)[nH]c(N)nc43)C(O)C2O)OC(n2c[n+](C)c3c(=O)[nH]c(N)nc32)C1O (stereo not shown) [Compound D28] | 92 µg | 1.12 |  |  |
| CNc1ccccc1C(=O)NCCCCCC(=O)NC[C@H]1[C@@H](O)[C@H](n2c[n+](C)c3c(=O)[nH]c(N)nc32)O[C@@H]1COP(=O)([O-])OP(=O)(O)OP(=O)(O)OC[C@H]1O[C@@H](n2cnc3c(N)ncnc32)[C@H](OC)[C@@H]1OP(=O)(O)OC[C@H]1O[C@@H](n2cnc3c(=O)[nH]c(N)nc32)[C@H](O)[C@@H]1O [Compound S166] |  |  | 91 µg | 0.87 |
| COCCOCCOCC(=O)NC[C@H]1[C@@H](O)[C@H](n2c[n+](C)c3c(=O)[nH]c(N)nc32)O[C@@H]1COP(=O)([O-])OP(=O)(O)OP(=O)(O)OC[C@H]1O[C@@H](n2cnc3c(N)ncnc32)[C@H](OC)[C@@H]1OP(=O)(O)OC[C@H]1O[C@@H](n2cnc3c(=O)[nH]c(N)nc32)[C@H](O)[C@@H]1O [Compound 5] |  |  | 180 µg | 1.86 |
| CO[C@@H]1[C@H](OP(=O)(O)OC[C@H]2O[C@@H](n3cnc4c(=O)[nH]c(N)nc43)[C@H](O)[C@@H]2O)[C@@H](COP(=O)(O)OP(=O)(O)OP(=O)([O-])OC[C@H]2O[C@@H](n3c[n+](C)c4c(=O)[nH]c(N)nc43)[C@H](O)[C@@H]2CNC(=O)CCCC[C@@H]2SC[C@@H]3NC(=O)N[C@@H]32)O[C@H]1n1cnc2c(N)ncnc21 [Compound S1] |  |  | 139 µg | 2.41 |
| CO[C@@H]1[C@H](OP(=O)([O-])OC[C@H]2O[C@@H](n3cnc4c(=O)[nH]c(N)nc43)[C@H](O)[C@@H]2O)[C@@H](COP(=O)(O)OP(=O)(O)OP(=O)(O)OC[C@H]2O[C@@H](n3c[n+](C)c4c(=O)[nH]c(N)nc43)[C@H](O)[C@]2(F)C(=O)N(C)C)O[C@H]1n1cnc2c(N)ncnc21 [Compound D82] | 146 µg | 1.63 |  |  |
| COC1C(OP(=O)([O-])OCC2OC(n3cnc4c(=O)[nH]c(N)nc43)C(O)C2O)C(COP(=O)(O)OP(=O)(O)OP(=O)(O)OCC2OC(n3c[n+](C)c4c(=O)[nH]c(N)nc43)C(O)C2(F)CN=[N+]=[N-])OC1n1cnc2c(N)ncnc21 (stereo not shown) [Compound D20] | 113 µg | 1.23 |  |  |
| C=CC[n+]1cn(C2OC(COP(=O)(O)OP(=O)(O)OP(=O)(O)OCC3OC(n4cnc5c(N)ncnc54)C(OC)C3OP(=O)([O-])OCC3OC(n4cnc5c(=O)[nH]c(N)nc54)C(O)C3O)C(F)(COC)C2O)c2nc(N)[nH]c(=O)c21 (stereo not shown) [Compound D90] | 100 µg | 1.44 |  |  |
| COC[C@]1(F)[C@@H](COP(=O)(O)OP(=O)(O)OP(=O)(O)OC[C@H]2O[C@@H](n3cnc4c(N)ncnc43)[C@H](OC)[C@@H]2OP(=O)([O-])OC[C@H]2O[C@@H](n3cnc4c(=O)[nH]c(N)nc43)[C@H](O)[C@@H]2O)O[C@@H](n2c[n+](C)c3c(=O)[nH]c(N)nc32)[C@@H]1O [Compound D1] |  | 2.07 |  |  |
